Experimental data published in patent US20060115440A1, “Silver dihydrogen citrate compositions” (priority 2004, published 2006).
Where two headings read alike, the source gives them in different places.

Key:
[1] = system: Corynebacterium xerosis (ATCC 373)
Source text: (§1) In the Table 57, test solutions contained 100 ppm Ag^+ in 5% citric acid solution at pH 7.0 (adjusted with NaOH).

[2] = system: Escherichia coli (ATCC 10536); conditions: test solutions contained 100 ppm Ag^+ in 5% citric acid solution at pH 7.0 (adjusted with NaOH)
Source text: as §1

[3] = system: Pseudomonas aeruginosa (ATCC 15442); conditions: test solutions contained 100 ppm Ag^+ in 5% citric acid solution at pH 7.0 (adjusted with NaOH)
Source text: as §1

[4] = system: Staphylococcus aureus (ATCC 6538); conditions: test solutions contained 100 ppm Ag^+ in 5% citric acid solution at pH 7.0 (adjusted with NaOH)
Source text: as §1

[5] = system: several varieties of bacteria
Source text: as §1
(§2) In the Table 58, test solutions contained 100 ppm Ag^+ in water at pH 7.0 (adjusted with NaOH).

[6] = system: Candida albicans (ATCC 10231); conditions: test solutions 100 ppm Ag^+ in water at pH 7.0 (adjusted with NaOH)
Source text: as §2

[7] = system: Chaetomium globosum (ATCC 6205); conditions: test solutions 100 ppm Ag^+ in water at pH 7.0 (adjusted with NaOH)
Source text: as §2

[8] = system: Corynebacterium minutissimum (ATCC 23348); conditions: test solutions 100 ppm Ag^+ in water at pH 7.0 (adjusted with NaOH)
Source text: as §2

[9] = system: Epidermophyton floccosum DSM 10709; conditions: test solutions 100 ppm Ag^+ in water at pH 7.0 (adjusted with NaOH)
Source text: as §2

[10] = system: Malessezia furfur (DSM 6171); conditions: test solutions 100 ppm Ag^+ in water at pH 7.0 (adjusted with NaOH)
Source text: as §2

[11] = system: Propionibacterium acnes (ATCC 6919); conditions: test solutions 100 ppm Ag^+ in water at pH 7.0 (adjusted with NaOH)
Source text: as §2

[12] = system: Trichophyton mentagrophytes (ATCC 9533); conditions: test solutions 100 ppm Ag^+ in water at pH 7.0 (adjusted with NaOH)
Source text: as §2

[13] = system: Trichophyton rubrum (ATCC 10218); conditions: test solutions 100 ppm Ag^+ in water at pH 7.0 (adjusted with NaOH)
Source text: as §2

[14] = in a mixture of anion, non-ionic and amphoteric surfactants
[15] = system: bacteria, fungi and viruses

## O=C(O)CC(O)(CC(=O)O)C(=O)[O-].[Ag+] [Silver dihydrogen citrate, silver dihydrogen citrate]
[1]; Corynebacterium xerosis (ATCC 373), test solutions 100 ppm Ag^+ in water at pH 7.0 (adjusted with NaOH)
  Minimum Inhibitory Concentration (MIC): 3.0 μg/ml Ag^+
[1]; test solutions contained 100 ppm Ag^+ in 5% citric acid solution at pH 7.0 (adjusted with NaOH)
  Minimum Inhibitory Concentration (MIC): 2.0 μg/ml Ag^+
[2]
  Minimum Inhibitory Concentration (MIC): 2.0 μg/ml Ag^+
[3]
  Minimum Inhibitory Concentration (MIC): 4.0 μg/ml Ag^+
[4]
  Minimum Inhibitory Concentration (MIC): 4.0 μg/ml μg/ml Ag^+
[5]
  effect on several varieties of bacteria (in words): bacteriostatic
[6]
  Minimum Inhibitory Concentration (MIC): 3.0 μg/ml Ag^+
[7]
  Minimum Inhibitory Concentration (MIC): 12-24 μg/ml Ag^+
[8]
  Minimum Inhibitory Concentration (MIC): 3.0 μg/ml Ag^+
[9]
  Minimum Inhibitory Concentration (MIC): 12-48 μg/ml Ag^+
[10]
  Minimum Inhibitory Concentration (MIC): 6.0 μg/ml Ag^+
[11]
  Minimum Inhibitory Concentration (MIC): 6.0 μg/ml Ag^+
[12]
  Minimum Inhibitory Concentration (MIC): 12-24 μg/ml Ag^+
[13]
  Minimum Inhibitory Concentration (MIC): 12-48 μg/ml Ag^+
[14]
  time-wise stability of the antimicrobial activity: stable and showed good preservation
[15]
  antimicrobial activity (in words): antimicrobial activity against a variety of microbes
